In paper PMC8648984 (Angewandte Chemie (International ed. in English), 2021):
≈ marks a conversion by molar mass, not a printed value. Where “and” joins values, the source holds several entries; their conditions need not be identical. Identical values can stand only once. Like-named read-outs stand apart in the source and are kept apart here.

Experiments:
[1] = target: CRBN (Homo sapiens, UniProt Q96SW2); assay: CRBN fluorescence polarization assay; format: binding; details: for IC50: read-out: CRBN IC50, fluorescence polarization, Cy5-conjugated lenalidomide probe; for LE (ligand efficiency): from CRBN affinity
Sequence of CRBN (Q96SW2 whole entry, species assumed): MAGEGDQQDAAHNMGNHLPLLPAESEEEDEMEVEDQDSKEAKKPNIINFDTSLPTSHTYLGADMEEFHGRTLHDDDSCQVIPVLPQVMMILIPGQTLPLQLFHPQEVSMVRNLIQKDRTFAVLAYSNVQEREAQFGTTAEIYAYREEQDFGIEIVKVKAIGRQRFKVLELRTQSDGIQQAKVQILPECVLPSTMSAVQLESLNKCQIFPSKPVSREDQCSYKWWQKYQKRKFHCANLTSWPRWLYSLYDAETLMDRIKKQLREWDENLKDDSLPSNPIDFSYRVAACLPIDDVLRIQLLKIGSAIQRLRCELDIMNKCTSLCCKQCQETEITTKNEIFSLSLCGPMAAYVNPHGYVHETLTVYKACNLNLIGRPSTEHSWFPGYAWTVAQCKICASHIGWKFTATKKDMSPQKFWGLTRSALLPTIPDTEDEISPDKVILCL

[2] = Chiral stability in cell media; format: physicochemical; details: 24 hours, 37°C
[3] = Chemical stability in HD-MB03 cell culture media; format: physicochemical; details: for half-life: HD-MB03 cell culture media, pH 7.7; for t1/2 HD-MB03 cell media: cell media pH 7.7
[4] = Stability in phosphate-buffered saline; format: physicochemical
[5] = Metabolic stability in mouse liver microsomes; format: in vitro ADME
[6] = Metabolic stability in human liver microsomes; format: in vitro ADME
[7] = Caco-2 cell permeability; format: in vitro ADME, human; details: human, Caco-2
[8] = cited from earlier work
[9] = Chemical stability in MV4–11 cell culture media; details: for half-life: MV4-11 cell culture media, pH 7.4; for t1/2 MV4–11 cell media: pH 7.4, LCMS over 24 hours
[10] = Aqueous solubility; format: physicochemical; details: for solubility: aqueous medium (not further specified)
[11] = test system: CaCo2 human colon adenocarcinoma cell line; assay: Caco-2 cell permeability; format: in vitro ADME
[12] = test system: MV4–11 cells; assay: MV4–11 cell viability; format: cell-based, human; details: read-out: MV4–11 IC50; 3 days incubation, CellTiter-Glo
[13] = test system: HD-MB03 cells; assay: HD-MB03 cell viability; format: cell-based, human; details: read-out: HD-MB03 IC50
[14] = Plasma stability; format: in vitro ADME
[15] = target: BRD2 (Homo sapiens, UniProt P25440); assay: BRD2 protein degradation in MV4–11 cells; format: cell-based; details: 100 nM, 4-hour incubation
Sequence of BRD2 (P25440 whole entry): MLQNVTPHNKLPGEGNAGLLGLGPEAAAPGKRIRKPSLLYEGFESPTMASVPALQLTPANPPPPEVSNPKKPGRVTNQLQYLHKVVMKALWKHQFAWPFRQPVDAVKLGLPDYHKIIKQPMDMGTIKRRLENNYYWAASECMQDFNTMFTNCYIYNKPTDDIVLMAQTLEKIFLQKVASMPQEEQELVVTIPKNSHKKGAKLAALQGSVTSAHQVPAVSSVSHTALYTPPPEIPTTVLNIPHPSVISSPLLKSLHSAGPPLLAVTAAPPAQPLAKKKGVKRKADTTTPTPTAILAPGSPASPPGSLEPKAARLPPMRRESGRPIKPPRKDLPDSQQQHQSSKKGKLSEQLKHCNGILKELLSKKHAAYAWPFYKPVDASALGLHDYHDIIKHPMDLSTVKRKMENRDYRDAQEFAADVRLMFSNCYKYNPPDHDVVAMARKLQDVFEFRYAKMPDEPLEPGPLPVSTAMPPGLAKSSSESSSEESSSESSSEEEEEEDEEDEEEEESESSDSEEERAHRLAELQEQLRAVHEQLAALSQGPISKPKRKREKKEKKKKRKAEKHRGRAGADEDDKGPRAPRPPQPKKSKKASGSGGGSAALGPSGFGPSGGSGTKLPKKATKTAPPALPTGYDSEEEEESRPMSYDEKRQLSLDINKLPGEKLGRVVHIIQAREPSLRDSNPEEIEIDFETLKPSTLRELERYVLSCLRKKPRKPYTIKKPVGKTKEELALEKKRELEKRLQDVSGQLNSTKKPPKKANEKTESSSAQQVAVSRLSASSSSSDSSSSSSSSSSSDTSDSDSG

[16] = test system: IKZF1 and CK1α; assay: Degradation of classical IMiD neosubstrates; format: cell-based
[17] = 3 days incubation, CellTiter-Glo

Row | IC50 [1] | half-life [3] [h] | half-life [4] [h] | half-life ([5]; liver microsomes) [h] | half-life ([6]; liver microsomes) [h] | Papp [7] [×10⁻⁶ cm/s] | half-life [9] [h] | Compound | t1/2 HD-MB03 cell media [3] [h] | t1/2 PBS [4] [h] | Sol. (aqueous solubility) [10] [µM] | CaCo2 Papp [11] [×10⁻⁶ cm/s] | t1/2 MV4–11 cell media ([9]; 37°C) [h] | IC50 [12] [nM] | IC50 [13, 17] [nM] | other results
1 | > 25000 nM |  |  |  |  |  |  | COc1ccc([C@@H]2CCC(=O)NC2=O)cc1 [(S)-2b] |  |  |  |  |  |  |  | chiral inversion ([2]; HD-MB03 cell media): 24%; chiral inversion ([2]; MV4–11 cell media): 13%
2 |  | 1.8 ± 0.1 | 5.4 ± 0.2 | 3.99 ± 0.01 | 4.55 ± 0.61 | 34.9 ± 1.46 | 3.3 ± 0.4 | O=C1CCC(N2C(=O)c3ccccc3C2=O)C(=O)N1 (centres unmarked) [1a, thalidomide] |  |  |  |  |  |  |  | half-life to hydrolysis ([8]; pH 7): 11 h; half-life to hydrolysis ([8]; pH 7.4): 5 h; half-life to hydrolysis ([8]; pH 8): 1.25 h; percentage remaining ([9]; MV4–11 cell media, after 6 hours, 37°C): 20%; level remaining ([9]; MV4–11 cell media, at 24 hours, 37°C): below limits of detection
3 | 123 ± 66 nM |  |  |  |  |  |  | Nc1ccc(C2CCC(=O)NC2=O)cc1 (centres unmarked) [2c] | 16.4 ± 0.3 | >48 | 148.5 ± 4.7 | 15.72 ± 0.94 | >24 |  |  | LE (ligand efficiency) [1]: 0.64; t1/2 mLM ([5]; microsomes): 23.19 ± 1.63 h; t1/2 hLM ([6]; microsomes): 15.66 ± 4.78 h
4 |  | 7.6 ± 0.6 | 33.6 ± 2.5 | > 24 | > 24 | 4 ± 1.02 | 11.7 | Nc1cccc2c1CN(C1CCC(=O)NC1=O)C2=O (centres unmarked) [1b, lenalidomide] |  |  |  |  |  |  |  | solubility [10]: 111 ± 6.2 µM (≈ 28.7 µg/mL)
5 |  |  |  |  |  |  |  | Cc1sc2c(c1C)C(c1ccc(Cl)cc1)=N[C@@H](CC(=O)NCCCCNC(=O)COc1cccc3c1C(=O)N(C1CCC(=O)NC1=O)C3=O)c1nnc(C)n1-2 (some centres unmarked) [4a] | 2.1 ± 0.3 | 12.3 ± 0.6 | 53.5 ± 0.3 | 1.16 ± 0.47 | 4.2 ± 0.8 | 6.1 ± 1.56 | 1240 | t1/2 mLM ([5]; microsomes): 0.13 ± 0.01 h; IC50 ([13]; 7 days incubation): > 4000 nM; plasma stability t1/2 [14]: 3.27 ± 0.25 h; depletion of BRD2 protein [15]: > 90%; degradation of IMiD neosubstrates IKZF1 and CK1α [16]: Neither of the two PROTACs degraded classical IMiD neosubstrates
6 |  |  |  |  |  |  |  | Cc1sc2c(c1C)C(c1ccc(Cl)cc1)=N[C@@H](CC(=O)OC(C)(C)C)c1nnc(C)n1-2 [JQ1] |  |  |  |  |  | 83 ± 10.3 | 265 ± 62.6 | 
7 |  | 5.4 ± 0.7 | 32.5 ± 1 | 7.8 ± 0.69 | > 24 | 36 ± 1.39 | 12.2 ± 0.5 | Nc1cccc2c1C(=O)N(C1CCC(=O)NC1=O)C2=O (centres unmarked) [1c, pomalidomide] |  |  |  |  |  |  |  | solubility [10]: 84.6 ± 2.3 µM (≈ 23.1 µg/mL)
8 |  |  |  |  |  |  |  | O=C1CCC(c2ccccc2)C(=O)N1 (centres unmarked) [2a, phenyl glutarimide] | 20.8 ± 0.8 | >48 | 76.2 ± 0.1 | 21.55 ± 6.54 | >24 | > 7000 | > 7000 | t1/2 mLM ([5]; liver microsomes): >24 h; t1/2 hLM ([6]; liver microsomes): >24 h
9 | 1410 nM |  |  |  |  |  |  | COc1ccc([C@H]2CCC(=O)NC2=O)cc1 [(R)-2b] |  |  |  |  |  |  |  | chiral inversion ([2]; HD-MB03 cell media): 21%; chiral inversion ([2]; MV4–11 cell media): 10%

Row | Compound | IC50 [1] | half-life [3] [h] | half-life [4] [h] | half-life ([5]; liver microsomes) [h] | half-life ([6]; liver microsomes) [h] | Papp [7] [×10⁻⁶ cm/s] | half-life [9] [h] | t1/2 HD-MB03 cell media [3] [h] | t1/2 PBS [4] [h] | Sol. (aqueous solubility) [10] [µM] | CaCo2 Papp [11] [×10⁻⁶ cm/s] | t1/2 MV4–11 cell media ([9]; 37°C) [h] | IC50 [12] [nM] | IC50 [13, 17] [nM] | other results
10 | COc1ccc(C2CCC(=O)NC2=O)cc1 (centres unmarked) [2b] | 3150 nM and 3160 nM |  |  |  |  |  |  | 19.7 ± 0.1 | >48 | 89.0 ± 1.8 | 81.8 ± 25.14 | >24 |  |  | LE (ligand efficiency) [1]: 0.48; t1/2 hLM ([6]; microsomes): >24 h
